Read-outs that look alike come from different tables or passages of the source.
Assays:
[1] = system: barnyardgrass; test: Test B pre-/postemergence herbicide test; type: in vivo, Echinochloa crus-galli; settings: for pest or weed control at 125 g/ha / pest or weed control at 500 g/ha: Echinochloa crus-galli; for Barnyardgrass plant response rating (0 to 100 scale) / Plant response rating, Barnyardgrass: preemergence
How it was run: (§1)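 Test chemicals in a non-phytotoxic solvent mixture with surfactant were applied preemergence to seeded species and postemergence to plants 2-18 cm tall (1- to 4-leaf stage); rice and barnyardgrass were also tested in a flooded paddy at the 2-leaf stage. Visual rating versus controls after 13-15 days in greenhouse, scale 0 (no effect) to 100 (complete control).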

[2] = system: cocklebur; test: Test B pre-/postemergence herbicide test; type: in vivo, Xanthium strumarium; settings: for pest or weed control at 125 g/ha / pest or weed control at 500 g/ha: Xanthium strumarium; for Cocklebur plant response rating (0 to 100 scale) / Plant response rating, Cocklebur: preemergence
How it was run: as §1

[3] = system: bermudagrass; test: Test C pre-/postemergence herbicide test; type: in vivo, Cynodon dactylon
How it was run: (§2)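 Preemergence: seeds planted and treated with compound in non-phytotoxic solvent with surfactant; postemergence: plants at 2 to 18 cm (1- to 4-leaf stage) sprayed likewise. Kept in greenhouse 12 to 14 days, then visually rated against controls, 0 (no effect) to 100 (complete control).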

[4] = system: Surinam grass; test: Test C pre-/postemergence herbicide test; type: in vivo, Urochloa decumbens
How it was run: as §2

[5] = system: morningglory; test: Test C pre-/postemergence herbicide test; type: in vivo, Ipomoea coccinea; set-up: key to Plant response rating, Morningglory: 0 = no effect, 100 = complete control
How it was run: as §2

[6] = system: pigweed; test: Test C pre-/postemergence herbicide test; type: in vivo, Amaranthus retroflexus
How it was run: as §2

[7] = 125 g ai/ha, 0 = no effect, 100 = complete control
[8] = 500 g ai/ha, visual rating, 0 = no effect, 100 = complete control
[9] = postemergence, 125 g ai/ha, visual rating, scale 0 (no effect) to 100 (complete control)
[10] = postemergence, 500 g ai/ha, visual rating, scale 0 (no effect) to 100 (complete control)
[11] = 125 g ai/ha, scale 0 (no effect) to 100 (complete control), visual, 12 to 14 days, preemergence
[12] = 250 g ai/ha, scale 0-100, preemergence
[13] = 62 g ai/ha, preemergence, scale 0 to 100
[14] = 500 g ai/ha, scale 0 to 100 (0 no effect, 100 complete control), visual, 12 to 14 days, preemergence
[15] = 125 g ai/ha, visual rating, scale 0 (no effect) to 100 (complete control), postemergence
[16] = postemergence, 500 g ai/ha, scale 0 to 100, 0 is no effect, 100 is complete control
[17] = Postemergence, 250 g ai/ha, scale 0 to 100, 0 no effect, 100 complete control
[18] = postemergence, 125 g ai/ha, scale 0 to 100
[19] = postemergence, 62 g ai/ha, scale 0 to 100

With CCNC(=O)c1cccc(NC(=O)c2nn(C(C)(C)C)cc2Br)c1 [Compound 221, 4-bromo-1-(1,1-dimethylethyl)-N-[3-[(ethylamino)carbonyl]phenyl]-1H-pyrazole-3-carboxamide] the pest or weed control at 125 g/ha ([1]; post-emergence, postemergence, 125 g ai/ha, visual rating, scale 0 (no effect) to 100 (complete control), read-out: Barnyardgrass plant response rating) was 0%, the pest or weed control at 500 g/ha ([1]; post-emergence, postemergence, 500 g ai/ha, visual rating, scale 0 (no effect) to 100 (complete control), read-out: Barnyardgrass plant response rating) was 10% and the pest or weed control at 125 g/ha ([1]; pre-emergence, 125 g ai/ha, 0 = no effect, 100 = complete control, read-out: Barnyardgrass plant response rating (0 to 100 scale)) was 0%. It also gave a pest or weed control at 500 g/ha ([1]; pre-emergence, 500 g ai/ha, visual rating, 0 = no effect, 100 = complete control, read-out: Plant response rating, Barnyardgrass) of 90%, a pest or weed control at 125 g/ha ([2]; post-emergence, postemergence, 125 g ai/ha, visual rating, scale 0 (no effect) to 100 (complete control), read-out: Cocklebur plant response rating) of 0% and a pest or weed control at 500 g/ha ([2]; post-emergence, postemergence, 500 g ai/ha, visual rating, scale 0 (no effect) to 100 (complete control), read-out: Cocklebur plant response rating) of 20%. For the same compound, the pest or weed control at 125 g/ha ([2]; pre-emergence, 125 g ai/ha, 0 = no effect, 100 = complete control, read-out: Cocklebur plant response rating (0 to 100 scale)) was 0%, the pest or weed control at 500 g/ha ([2]; pre-emergence, 500 g ai/ha, visual rating, 0 = no effect, 100 = complete control, read-out: Plant response rating, Cocklebur) was 0% and the pest or weed control at 62 g/ha ([3]; Cynodon dactylon, pre-emergence, 312 h, 62 g ai/ha, preemergence, scale 0 to 100, 0 no effect, 100 complete control, read-out: Plant response rating, Bermudagrass) was 0%. The pest or weed control at 125 g/ha ([3]; Cynodon dactylon, pre-emergence, 312 h, 125 g ai/ha, scale 0 (no effect) to 100 (complete control), visual, 12 to 14 days, read-out: Plant response rating, Bermudagrass) was 10%, the pest or weed control at 250 g/ha ([3]; Cynodon dactylon, pre-emergence, 312 h, 250 g ai/ha, scale 0-100, read-out: Plant response rating, Bermudagrass) was 85% and the pest or weed control at 500 g/ha ([3]; Cynodon dactylon, pre-emergence, 312 h, Preemergence, 500 g ai/ha, scale 0 to 100, 0 no effect, 100 complete control, read-out: Bermudagrass plant response rating) was 85%. It also gave a pest or weed control at 62 g/ha ([4]; Urochloa decumbens, pre-emergence, 312 h, 62 g ai/ha, preemergence, scale 0 to 100, read-out: Plant response rating, Surinam Grass) of 0%, a pest or weed control at 250 g/ha ([4]; Urochloa decumbens, pre-emergence, 312 h, 250 g ai/ha, scale 0-100, read-out: Plant response rating, Surinam Grass) of 10% and a pest or weed control at 500 g/ha ([4]; Urochloa decumbens, pre-emergence, 312 h, 500 g ai/ha, scale 0 to 100 (0 no effect, 100 complete control), visual, 12 to 14 days, read-out: Plant response rating, Surinam Grass) of 45%. For the same compound, the pest or weed control at 62 g/ha ([5]; Ipomoea, pre-emergence, 62 g ai/ha, preemergence, scale 0 to 100, read-out: Plant response rating, Morningglory) was 0%, the pest or weed control at 125 g/ha ([5]; Ipomoea, pre-emergence, 125 g ai/ha, scale 0 (no effect) to 100 (complete control), visual, 12 to 14 days, read-out: Plant response rating, Morningglory) was 0% and the pest or weed control at 250 g/ha ([5]; Ipomoea, pre-emergence, 250 g ai/ha, scale 0-100, read-out: Plant response rating, Morningglory) was 0%. For the same compound, the pest or weed control at 500 g/ha ([5]; Ipomoea, pre-emergence, 500 g ai/ha, scale 0 to 100 (0 no effect, 100 complete control), visual, 12 to 14 days, read-out: Plant response rating, Morningglory) was 0%, the pest or weed control at 62 g/ha ([6]; Amaranthus retroflexus, pre-emergence, 62 g ai/ha, preemergence, scale 0 to 100, read-out: Plant response rating, Pigweed) was 90% and the pest or weed control at 125 g/ha ([6]; Amaranthus retroflexus, pre-emergence, 125 g ai/ha, scale 0 (no effect) to 100 (complete control), visual, 12 to 14 days, read-out: Plant response rating, Pigweed) was 100%. The pest or weed control at 250 g/ha ([6]; Amaranthus retroflexus, pre-emergence, 250 g ai/ha, scale 0-100, read-out: Plant response rating, Pigweed) was 100% and the pest or weed control at 500 g/ha ([6]; Amaranthus retroflexus, pre-emergence, 500 g ai/ha, scale 0 to 100 (0 no effect, 100 complete control), visual, 12 to 14 days, read-out: Plant response rating, Pigweed) was 100%.
With CCn1nc(C(C)(C)C)cc1C(=O)Nc1cc(C(=O)N(C)OC)ccc1F [Compound 244] the “Barnyardgrass plant response rating (0 to 100 scale)” value [1, 7] was 80, the “Plant response rating, Barnyardgrass” value [1, 8] was 90 and the “Barnyardgrass plant response rating” value [1, 9] was 10. For the same compound, the “Barnyardgrass plant response rating” value [1, 10] was 50, the “Cocklebur plant response rating (0 to 100 scale)” value [2, 7] was 0 and the “Plant response rating, Cocklebur” value [2, 8] was 20. For the same compound, the “Cocklebur plant response rating” value [2, 9] was 30, the “Cocklebur plant response rating” value [2, 10] was 80 and the “Plant response rating, Bermudagrass” value ([3]; 62 g ai/ha, preemergence, scale 0 to 100, 0 no effect, 100 complete control) was 95. The “Plant response rating, Bermudagrass” value [3, 11] was 100, the “Plant response rating, Bermudagrass” value [3, 12] was 100 and the “Bermudagrass plant response rating” value ([3]; Preemergence, 500 g ai/ha, scale 0 to 100, 0 no effect, 100 complete control) was 100. For the same compound, the “Plant response rating, Surinam Grass” value [4, 13] was 100, the “Plant response rating, Surinam Grass” value [4, 12] was 100 and the “Plant response rating, Surinam Grass” value [4, 14] was 100. For the same compound, the “Plant response rating, Morningglory” value [5, 13] was 0, the “Plant response rating, Morningglory” value [5, 11] was 15 and the “Plant response rating, Morningglory” value [5, 12] was 20. The “Plant response rating, Morningglory” value [5, 14] was 55, the “Plant response rating, Pigweed” value [6, 13] was 100 and the “Plant response rating, Pigweed” value [6, 11] was 100. The “Plant response rating, Pigweed” value [6, 12] was 100 and the “Plant response rating, Pigweed” value [6, 14] was 100.
For CCOC(=O)c1cccc(NC(=O)c2cc(C3(C)CC3)nn2CC)c1 [Compound 295], the “Barnyardgrass plant response rating (0 to 100 scale)” value [1, 7] was 10, the “Barnyardgrass plant response rating” value [1, 15] was 30 and the “Plant response rating, Barnyardgrass” value [1, 8] was 20. For the same compound, the “Barnyardgrass plant response rating” value [1, 16] was 50, the “Cocklebur plant response rating (0 to 100 scale)” value [2, 7] was 0 and the “Cocklebur plant response rating” value [2, 15] was 40. For the same compound, the “Plant response rating, Cocklebur” value [2, 8] was 0, the “Cocklebur plant response rating” value [2, 16] was 90 and the “Plant response rating, Bermudagrass” value [3, 17] was 0. The “Plant response rating, Bermudagrass” value [3, 18] was 0, the “Plant response rating, Bermudagrass” value ([3]; postemergence, 31 g ai/ha, scale 0 to 100) was 0 and the “Plant response rating, Bermudagrass” value [3, 19] was 0. For the same compound, the “Plant response rating, Surinam Grass” value [4, 17] was 15, the “Plant response rating, Surinam Grass” value [4, 18] was 5 and the “Plant response rating, Surinam Grass” value [4, 19] was 5. For the same compound, the “Plant response rating, Morningglory” value [5, 17] was 30, the “Plant response rating, Morningglory” value [5, 18] was 10 and the “Plant response rating, Morningglory” value [5, 19] was 10. The “Plant response rating, Pigweed” value [6, 17] was 95 and the “Plant response rating, Pigweed” value [6, 19] was 80.

— US20060069132A1, “Azolecarboxamide herbicides” (priority 2004, published 2006)
